Assay results taken from ChEMBL document CHEMBL1833945, “Synthesis and anticonvulsant activity of new N-Mannich bases derived from 5-cyclopropyl-5-phenyl- and 5-cyclopropyl-5-(4-chlorophenyl)-imidazolidine-2,4-diones” (Bioorg Med Chem, 2011).
Calls of active or inactive are those of the source. The rule behind the calls is not given here.

System: not listed separately
Assay: Lipophilicity, log P of compound
Format: physicochemical
Details: octanol/water

| logP | Structure (SMILES) |
| --- | --- |
| 3.19 | CC(c1ccccc1)N1CCN(CN2C(=O)NC(c3ccccc3)(C3CC3)C2=O)CC1 (stereo not drawn) |
| 3.02 | O=C1NC(c2ccccc2)(C2CC2)C(=O)N1CN1CCc2ccccc2C1 (stereo not drawn) |
| 3.3 | O=C1NC(c2ccccc2)(C2CC2)C(=O)N1CN1CCN(C/C=C/c2ccccc2)CC1 (stereo not drawn) |
| 3.9 | CC(c1ccccc1)N1CCN(CN2C(=O)NC(c3ccc(Cl)cc3)(C3CC3)C2=O)CC1 (stereo not drawn) |

System: Rattus norvegicus
Assay: Anticonvulsant activity in po dosed Sprague-Dawley albino rat assessed as protection against subcutaneous pentylenetetrazole-induced seizures
Format: functional
Details: not given

| Structure (SMILES) | ED50 |
| --- | --- |
| CC(c1ccccc1)N1CCN(CN2C(=O)NC(c3ccccc3)(C3CC3)C2=O)CC1 (stereo not drawn) | < 100 mg/kg |

System: Mus musculus
Assay: Anticonvulsant activity in ip dosed CF1 albino mouse assessed as protection against maximal electroshock-induced seizures after 0.5 hrs
Format: functional
Details: read-out: MED

| Structure (SMILES) | minimal effective dose |
| --- | --- |
| CC(c1ccccc1)N1CCN(CN2C(=O)NC(c3ccccc3)(C3CC3)C2=O)CC1 (stereo not drawn) | 300 mg/kg |
| O=C1NC(c2ccccc2)(C2CC2)C(=O)N1CN1CCc2ccccc2C1 (stereo not drawn) | 300 mg/kg |
| O=C1NC(c2ccccc2)(C2CC2)C(=O)N1CN1CCN(C/C=C/c2ccccc2)CC1 (stereo not drawn) | 100 mg/kg |
| CC(c1ccccc1)N1CCN(CN2C(=O)NC(c3ccc(Cl)cc3)(C3CC3)C2=O)CC1 (stereo not drawn) | 300 mg/kg |

System: not listed separately
Assay: Neurotoxicity in oral dosed Sprague-Dawley albino rat assessed as motor impairment by rotarod test
Format: toxicity, organism-based
Details: in vivo

| Structure (SMILES) | TD50 |
| --- | --- |
| CC(c1ccccc1)N1CCN(CN2C(=O)NC(c3ccccc3)(C3CC3)C2=O)CC1 (stereo not drawn) | > 200 mg/kg |

System: Mus musculus
Assay: Anticonvulsant activity in ip dosed CF1 albino mouse assessed as protection against subcutaneous pentylenetetrazole-induced seizures after 4 hrs
Format: functional
Details: read-out: MED

| Structure (SMILES) | minimal effective dose |
| --- | --- |
| O=C1NC(c2ccccc2)(C2CC2)C(=O)N1CN1CCN(C/C=C/c2ccccc2)CC1 (stereo not drawn) | 300 mg/kg |

System: Mus musculus
Assay: Anticonvulsant activity in ip dosed CF1 albino mouse assessed as protection against maximal electroshock-induced seizures after 4 hrs
Format: functional
Details: read-out: MED

| Structure (SMILES) | minimal effective dose |
| --- | --- |
| CC(c1ccccc1)N1CCN(CN2C(=O)NC(c3ccccc3)(C3CC3)C2=O)CC1 (stereo not drawn) | 100 mg/kg |
| O=C1NC(c2ccccc2)(C2CC2)C(=O)N1CN1CCc2ccccc2C1 (stereo not drawn) | 300 mg/kg |
| O=C1NC(c2ccccc2)(C2CC2)C(=O)N1CN1CCN(C/C=C/c2ccccc2)CC1 (stereo not drawn) | 100 mg/kg |
| CC(c1ccccc1)N1CCN(CN2C(=O)NC(c3ccc(Cl)cc3)(C3CC3)C2=O)CC1 (stereo not drawn) | 300 mg/kg |

System: Mus musculus
Assay: Neurotoxicity in CF1 albino mouse assessed as impair in motor coordination at 300 mg/kg, ip after 4 hrs by rotarod test
Format: toxicity, organism-based
Parameters: dose 300 mg/kg, route intraperitoneal
Details: in vivo

| Structure (SMILES) | Activity |
| --- | --- |
| CC(c1ccccc1)N1CCN(CN2C(=O)NC(c3ccccc3)(C3CC3)C2=O)CC1 (stereo not drawn) | Non-toxic |
| O=C1NC(c2ccccc2)(C2CC2)C(=O)N1CN1CCc2ccccc2C1 (stereo not drawn) | Non-toxic |
| CC(c1ccccc1)N1CCN(CN2C(=O)NC(c3ccc(Cl)cc3)(C3CC3)C2=O)CC1 (stereo not drawn) | Non-toxic |

System: Mus musculus
Assay: Neurotoxicity in ip dosed CF1 albino mouse assessed as minimum dose required to cause impair in motor coordination after 0.5 hrs by rotarod test
Format: toxicity, organism-based
Details: in vivo

| Structure (SMILES) | MTC |
| --- | --- |
| O=C1NC(c2ccccc2)(C2CC2)C(=O)N1CN1CCc2ccccc2C1 (stereo not drawn) | 100 mg/kg |

System: Mus musculus
Assay: Neurotoxicity in CF1 albino mouse assessed as loss of rotard grasping at 300 mg/kg, ip after 0.5 hrs by rotarod test
Format: toxicity, organism-based
Parameters: dose 300 mg/kg, route intraperitoneal
Details: in vivo

| Structure (SMILES) | Activity |
| --- | --- |
| O=C1NC(c2ccccc2)(C2CC2)C(=O)N1CN1CCN(C/C=C/c2ccccc2)CC1 (stereo not drawn) | Toxic |
| CC(c1ccccc1)N1CCN(CN2C(=O)NC(c3ccc(Cl)cc3)(C3CC3)C2=O)CC1 (stereo not drawn) | Toxic |

System: Rattus norvegicus
Assay: Neurotoxicity in Sprague-Dawley albino rat assessed as motor impairment at 30 mg/kg, po after 1 hrs by rotarod test
Format: toxicity, organism-based
Parameters: dose 30 mg/kg, route oral
Details: in vivo

| Structure (SMILES) | Activity |
| --- | --- |
| CC(c1ccccc1)N1CCN(CN2C(=O)NC(c3ccccc3)(C3CC3)C2=O)CC1 (stereo not drawn) | Non-toxic |
| O=C1NC(c2ccccc2)(C2CC2)C(=O)N1CN1CCc2ccccc2C1 (stereo not drawn) | Non-toxic |

System: Rattus norvegicus
Assay: Anticonvulsant activity in po dosed Sprague-Dawley albino rat assessed as protection against maximal electroshock-induced seizures
Format: functional
Details: not given

| Structure (SMILES) | ED50 |
| --- | --- |
| CC(c1ccccc1)N1CCN(CN2C(=O)NC(c3ccccc3)(C3CC3)C2=O)CC1 (stereo not drawn) | 10.9 mg/kg |

System: Mus musculus
Assay: Toxicity in subcutaneous pentylenetetrazole-induced CF1 albino mouse assessed as myoclonic jerks at 300 mg/kg, ip after 4 hrs
Format: organism-based
Parameters: dose 300 mg/kg
Details: in vivo, sc

| Structure (SMILES) | Activity |
| --- | --- |
| CC(c1ccccc1)N1CCN(CN2C(=O)NC(c3ccccc3)(C3CC3)C2=O)CC1 (stereo not drawn) | Toxic |
| O=C1NC(c2ccccc2)(C2CC2)C(=O)N1CN1CCc2ccccc2C1 (stereo not drawn) | Toxic |

System: Rattus norvegicus
Assay: Neurotoxicity in Sprague-Dawley albino rat assessed as motor impairment at 30 mg/kg, po after 2 hrs by rotarod test
Format: toxicity, organism-based
Parameters: dose 30 mg/kg, route oral
Details: in vivo

| Structure (SMILES) | Activity |
| --- | --- |
| CC(c1ccccc1)N1CCN(CN2C(=O)NC(c3ccccc3)(C3CC3)C2=O)CC1 (stereo not drawn) | Non-toxic |
| O=C1NC(c2ccccc2)(C2CC2)C(=O)N1CN1CCc2ccccc2C1 (stereo not drawn) | Non-toxic |

System: Mus musculus
Assay: Neurotoxicity in CF1 albino mouse assessed as impair in motor coordination at 300 mg/kg, ip after 0.5 hrs by rotarod test
Format: toxicity, organism-based
Parameters: dose 300 mg/kg, route intraperitoneal
Details: in vivo

| Structure (SMILES) | Activity |
| --- | --- |
| CC(c1ccccc1)N1CCN(CN2C(=O)NC(c3ccccc3)(C3CC3)C2=O)CC1 (stereo not drawn) | Non-toxic |

Species: Rattus norvegicus
Assay: Protective index, ratio of TD50 for neurotoxicity in Sprague-Dawley albino rat to ED50 for inhibition of maximal electroshock-induced seizures in Sprague-Dawley albino rat
Format: functional
Details: not given

| Structure (SMILES) | PI |
| --- | --- |
| CC(c1ccccc1)N1CCN(CN2C(=O)NC(c3ccccc3)(C3CC3)C2=O)CC1 (stereo not drawn) | >18.3 |

System: Rattus norvegicus
Assay: Anticonvulsant activity in Sprague-Dawley albino rat assessed as protection against maximal electroshock-induced seizures at 30 mg/kg, po after 4 hrs
Format: functional, organism-based
Parameters: dose 30 mg/kg
Details: not given

| Structure (SMILES) | Activity |
| --- | --- |
| O=C1NC(c2ccccc2)(C2CC2)C(=O)N1CN1CCc2ccccc2C1 (stereo not drawn) | Active |

System: Mus musculus
Assay: Anticonvulsant activity in CF1 albino mouse assessed as protection against subcutaneous pentylenetetrazole-induced seizures at 300 mg/kg, […] after 4 hrs
Format: functional, organism-based
Parameters: dose 300 mg/kg
Details: not given

| Structure (SMILES) | Activity |
| --- | --- |
| CC(c1ccccc1)N1CCN(CN2C(=O)NC(c3ccc(Cl)cc3)(C3CC3)C2=O)CC1 (stereo not drawn) | inactive |

System: Mus musculus
Assay: Anticonvulsant activity in ip dosed CF1 albino mouse assessed as protection against subcutaneous pentylenetetrazole-induced seizures after 0.5 hrs
Format: functional
Details: read-out: MED

| Structure (SMILES) | minimal effective dose |
| --- | --- |
| O=C1NC(c2ccccc2)(C2CC2)C(=O)N1CN1CCN(C/C=C/c2ccccc2)CC1 (stereo not drawn) | 100 mg/kg |

System: Rattus norvegicus
Assay: Neurotoxicity in Sprague-Dawley albino rat assessed as motor impairment at 30 mg/kg, po after 0.25 hrs by rotarod test
Format: toxicity, organism-based
Parameters: dose 30 mg/kg, route oral
Details: in vivo

| Structure (SMILES) | Activity |
| --- | --- |
| CC(c1ccccc1)N1CCN(CN2C(=O)NC(c3ccccc3)(C3CC3)C2=O)CC1 (stereo not drawn) | Non-toxic |
| O=C1NC(c2ccccc2)(C2CC2)C(=O)N1CN1CCc2ccccc2C1 (stereo not drawn) | Non-toxic |

System: Rattus norvegicus
Assay: Anticonvulsant activity in Sprague-Dawley albino rat assessed as protection against maximal electroshock-induced seizures at 30 mg/kg, po after 0.5 hrs
Format: functional, organism-based
Parameters: dose 30 mg/kg
Details: not given

| Structure (SMILES) | Activity |
| --- | --- |
| O=C1NC(c2ccccc2)(C2CC2)C(=O)N1CN1CCc2ccccc2C1 (stereo not drawn) | inactive |

System: Rattus norvegicus
Assay: Anticonvulsant activity in po dosed Sprague-Dawley albino rat assessed as time to peak effect
Format: functional
Details: not given

| Structure (SMILES) | Time |
| --- | --- |
| CC(c1ccccc1)N1CCN(CN2C(=O)NC(c3ccccc3)(C3CC3)C2=O)CC1 (stereo not drawn) | 2 h |

System: Rattus norvegicus
Assay: Neurotoxicity in Sprague-Dawley albino rat assessed as motor impairment at 30 mg/kg, po after 4 hrs by rotarod test
Format: toxicity, organism-based
Parameters: dose 30 mg/kg, route oral
Details: in vivo

| Structure (SMILES) | Activity |
| --- | --- |
| CC(c1ccccc1)N1CCN(CN2C(=O)NC(c3ccccc3)(C3CC3)C2=O)CC1 (stereo not drawn) | Non-toxic |
| O=C1NC(c2ccccc2)(C2CC2)C(=O)N1CN1CCc2ccccc2C1 (stereo not drawn) | Non-toxic |

System: Rattus norvegicus
Assay: Neurotoxicity in Sprague-Dawley albino rat assessed as motor impairment at 30 mg/kg, po after 0.5 hrs by rotarod test
Format: toxicity, organism-based
Parameters: dose 30 mg/kg, route oral
Details: in vivo

| Structure (SMILES) | Activity |
| --- | --- |
| CC(c1ccccc1)N1CCN(CN2C(=O)NC(c3ccccc3)(C3CC3)C2=O)CC1 (stereo not drawn) | Non-toxic |
| O=C1NC(c2ccccc2)(C2CC2)C(=O)N1CN1CCc2ccccc2C1 (stereo not drawn) | Non-toxic |

System: Rattus norvegicus
Assay: Anticonvulsant activity in Sprague-Dawley albino rat assessed as protection against maximal electroshock-induced seizures at 30 mg/kg, po after 0.25 hrs
Format: functional, organism-based
Parameters: dose 30 mg/kg
Details: not given

| Structure (SMILES) | Activity |
| --- | --- |
| O=C1NC(c2ccccc2)(C2CC2)C(=O)N1CN1CCc2ccccc2C1 (stereo not drawn) | inactive |

System: Mus musculus
Assay: Neurotoxicity in CF1 albino mouse assessed as minimum dose causing loss of righting reflex at 300 mg/kg, ip after 4 hrs by rotarod test
Format: toxicity, organism-based
Parameters: dose 300 mg/kg, route intraperitoneal
Details: in vivo

| Structure (SMILES) | Activity |
| --- | --- |
| O=C1NC(c2ccccc2)(C2CC2)C(=O)N1CN1CCN(C/C=C/c2ccccc2)CC1 (stereo not drawn) | Toxic |
